From article PMC8235783, “Radiopharmaceutical Formulation and Preclinical Testing of ^68Ga-Labeled DOTA-MGS5 for the Regulatory Approval of a First Exploratory Clinical Trial” (Pharmaceuticals, 2021)

Key:
[1] = biological target: T1, CCK2R on A431-CCK2R cells (human CCK2R) (Homo sapiens, UniProt P32239); assay: Receptor affinity competition assay against [125I][3-iodo-Tyr12,Leu15]gastrin-I; type: binding; settings: competition against [125I][3-iodo-Tyr12,Leu15]gastrin-I on A431-CCK2R cells, 1 h at RT; n = 3 (Ga-DOTA-MGS5 n = 1)
T1 construct: expressed in transfected cells; host or cells: A431 human epidermoid carcinoma cells, stably transfected (provided by Dr. Luigi Aloj)
T1 sequence (P32239 1-447): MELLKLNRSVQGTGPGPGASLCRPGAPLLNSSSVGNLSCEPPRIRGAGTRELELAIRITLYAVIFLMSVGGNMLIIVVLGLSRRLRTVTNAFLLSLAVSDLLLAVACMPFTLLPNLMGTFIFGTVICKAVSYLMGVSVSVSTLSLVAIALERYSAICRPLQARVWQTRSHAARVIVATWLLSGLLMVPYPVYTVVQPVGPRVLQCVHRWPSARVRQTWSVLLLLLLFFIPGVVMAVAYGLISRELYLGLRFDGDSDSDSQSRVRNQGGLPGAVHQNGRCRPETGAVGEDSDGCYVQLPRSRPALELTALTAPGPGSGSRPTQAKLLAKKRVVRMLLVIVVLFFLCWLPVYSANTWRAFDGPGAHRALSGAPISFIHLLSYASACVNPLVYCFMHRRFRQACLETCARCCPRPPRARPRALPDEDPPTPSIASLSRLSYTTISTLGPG
Experimental: A431-CCK2R and A431-mock cells were cultured in Dulbecco’s Modified Eagle Medium (DMEM) and AR42J cells were cultured in RPMI-1640 medium, both supplemented with 10% (v/v) fetal bovine serum and 5 mL of a 100x penicillin–streptomycin–glutamine mixture at 37 °C in a humidified 95% air/5% CO2 atmosphere. Media and supplements were purchased from Invitrogen Corporation (Lofer, Austria).
Binding assays on A431-CCK2R cells were carried out as previously described [37]. The cells were incubated with increasing concentrations of the peptide conjugates and [^125I][3-iodo-Tyr^12,Leu^15]gastrin-I (~20,000 cpm) for 1 h at RT. Half-maximum inhibitory concentration (IC50) values were calculated after nonlinear regression using Origin software (Microcal Origin 6.1, Northampton, MA, USA).

[2] = 14-day extended single-dose intravenous toxicity study in rats; type: in vivo
Experimental: In the preclinical evaluation of the safety profile of DOTA-MGS5, a targeted approach was followed for the 14-day extended single-dose toxicity study conducted in male Wistar rats. Instead of performing the study in animals of both sexes at a single dose level, the non-clinical evaluation was confined to male animals, including, however, three different dose levels based on mg/kg scaling and body surface scaling (applying a factor of 6.2). Considering a maximum dose of 50 µg administered to patients and an exposure margin of 100-fold the clinical dose, a dose level of 0.5 mg/kg body weight was calculated for the study and used as medium dose. Two additional dose levels of 0.1 mg/kg body weight and 2.5 mg/kg body weight were selected to allow a more accurate evaluation of the safety profile. Based on the preclinical biodistribution studies, the stomach, pancreas, and kidneys were identified as the main target organs. In addition to these organs, the liver and colon as potential additional routes of excretion, as well as spleen and sternum (including bone marrow), were also included in the histopathological evaluation.
A NOAEL (no observed adverse effect level) of 2.5 mg/kg body weight was established from the study for the single administration of DOTA-MGS5. When considering body surface scaling from rats to humans, the NOAEL of 2.5 mg/kg body weight translates to a HED (human equivalent dose) of 0.4 mg/kg body weight. By applying a safety factor of 100, a maximum dose of 4 µg/kg body weight was established for human subjects receiving the initial clinical dose. For the first PET/CT examinations with ^68Ga-DOTA-MGS5, a maximum dose of 50 µg could be established as clinical dose, which remains well below the maximum dose of 4 µg/kg body weight.
The safety of the intravenous injection was tested for unlabeled DOTA-MGS5 in a GLP-compliant 14-day extended single-dose intravenous toxicity study in rats using the intravenous route of administration. The study was designed following a targeted microdose approach based on the ICH guideline M3 (R2) on non-clinical safety studies for the conduct of human clinical trials and marketing authorization for pharmaceuticals (EMA/CPMP/ICH/286/1995, December 2009), as well as the draft guideline on the non-clinical requirements for radiopharmaceuticals (EMA/CHMP/SWP/686140/2018, 15 November 2018). The study was conducted in a GLP-compliant laboratory (BSL BIOSERVICE Scientific Laboratories Munich GmbH, Planegg/Munich, Germany) using 60 6–7-week-old male healthy Wistar rats (Crl: WI(Han), Full Barrier, Charles River, Sulzfeld, Germany). […] Body weight and food consumption was determined on a weekly basis. […]

in vivo = settings: female, BALB/c, mouse, iv, 20 pmol peptide
Experimental: The biodistribution profile of ^68Ga-DOTA-MGS5 in female BALB/c mice was evaluated for the time points of 5, 20, 60, and 90 min post injection (p.i.).
Biodistribution studies evaluating the pharmacokinetics and tissue distribution of ^68Ga-DOTA-MGS5 were performed in 6-week-old female BALB/c mice (n = 12). Groups of three mice for each time point were injected intravenously via a lateral tail vein with ~1 MBq of ^68Ga-DOTA-MGS5 corresponding to 20 pmol peptide. The mice were euthanized by cervical dislocation 5, 20, 60, and 90 min after injection and different tissues (blood, lung, heart, muscle, spleen, intestine, liver, kidneys, pancreas, stomach, and femur) were removed, weighed, and their radioactivity measured in a gamma-counter together with a standard and the residual body. Results were expressed as percentage of injected activity per organ (% IA) and per gram tissue (% IA/g).

[3] = injected dose of 150 MBq; cited from earlier work
Experimental: When extrapolating the biodistribution data from mice to humans, a whole-body effective dose of 0.0102 mSv/MBq for men and of 0.0131 mSv/MBq for women was calculated. In Table 4, a summary of the calculated organ absorbed doses is given. At a maximum injected activity of 185 MBq, a whole-body radiation dose of 1.9–2.4 mSv can be anticipated for a PET examination with ^68Ga-DOTA-MGS5. The radiation exposure from the radioactive substance is in a similar range of a low-dose CT scan of 3–6 mSv. Due to the potential hazards of ionizing radiation, the dose of the PET/CT scan should be kept a ...

[4] = biological target: T2, AR42J cells with physiological expression of rat CCK2R (Rattus norvegicus, UniProt P30553); settings: 4 h after incubation; cited from earlier work
T2 construct: In AR42J cells with physiological expression of rat CCK2R; host or cells: AR42J rat pancreatic tumor cells
T2 sequence (P30553 1-452): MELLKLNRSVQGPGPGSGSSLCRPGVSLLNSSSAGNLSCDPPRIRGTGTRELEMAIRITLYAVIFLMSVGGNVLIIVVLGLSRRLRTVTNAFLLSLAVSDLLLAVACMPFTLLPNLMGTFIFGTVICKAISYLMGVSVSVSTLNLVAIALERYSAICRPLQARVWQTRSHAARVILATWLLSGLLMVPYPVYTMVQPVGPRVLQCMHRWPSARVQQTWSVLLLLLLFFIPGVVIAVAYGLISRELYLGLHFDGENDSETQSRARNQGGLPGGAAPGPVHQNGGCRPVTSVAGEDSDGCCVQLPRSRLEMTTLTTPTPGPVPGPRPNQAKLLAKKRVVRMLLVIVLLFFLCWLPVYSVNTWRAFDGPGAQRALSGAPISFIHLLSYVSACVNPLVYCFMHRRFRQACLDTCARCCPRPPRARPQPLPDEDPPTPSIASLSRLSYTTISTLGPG

[5] = biological target: T3, A431-CCK2R cells (human CCK2R) (Homo sapiens, UniProt P32239); settings: 1 h incubation; cited from earlier work
T3 construct: expressed in transfected cells; host or cells: A431 human epidermoid carcinoma cells, stably transfected (provided by Dr. Luigi Aloj)
T3 sequence (P32239 1-447): T1 sequence (P32239 1-447)
Experimental: For the time point of 1 h incubation, a cell internalization of ~20% was reported for ^177Lu-DOTA-PP-F11N in A431-CCK2R cells.

[6] = total radioactivity, uptake in blood
[7] = total radioactivity, uptake in femur
[8] = total radioactivity, uptake in heart
[9] = total radioactivity, uptake in intestine
[10] = total radioactivity, uptake in kidneys
[11] = total radioactivity, uptake in liver
[12] = total radioactivity, uptake in lung
[13] = total radioactivity, uptake in muscle
[14] = total radioactivity, uptake in pancreas
[15] = total radioactivity, uptake in spleen
[16] = total radioactivity, uptake in stomach

Molecule: CCCC[C@@H](C(=O)N[C@@H](CC(=O)O)C(=O)N[C@@H](Cc1cccc2ccccc12)C(N)=O)N(C)C(=O)[C@H](Cc1c[nH]c2ccccc12)NC(=O)CNC(=O)[C@H](Cc1ccc(O)cc1)NC(=O)[C@H](C)NC(=O)[C@@H](CCC(=O)O)NC(=O)CN1CCN(CC(=O)O)CCN(CC(=O)O)CCN(CC(=O)O)CC1 [DOTA-MGS5, DOTA-DGlu-Ala-Tyr-Gly-Trp-(N-Me)Nle-Asp-1-Nal-NH2]
- IC50 [1]: 0.5 ± 0.1 nM
- treatment-related mortality or clinical symptoms ([2]; i.v. 0.1, 0.5 and 2.5 mg/kg BW, male Wistar rats, until end of observation periods (2 and 14 days)): no treatment-related mortality or clinical symptoms occurred
- HED (human equivalent dose) ([2]; rat, in vivo): 0.4 mg/kg body weight
- maximum dose for human subjects receiving the initial clinical dose ([2]; rat, in vivo): 4 µg/kg body weight

Molecule: CCCC[C@@H](C(=O)N[C@@H](CC(=O)O)C(=O)N[C@@H](Cc1cccc2ccccc12)C(N)=O)N(C)C(=O)[C@H](Cc1c[nH]c2ccccc12)NC(=O)CNC(=O)[C@H](Cc1ccc(O)cc1)NC(=O)[C@H](C)NC(=O)[C@@H](CCC(=O)O)NC(=O)CN1CCN(CC(=O)O)CCN(CC(=O)O)CCN(CC(=O)O)CC1 [^68Ga-DOTA-MGS5, metal not drawn]
- uptake in blood (in vivo; 1.5 h): 0.94 ± 0.08 % IA/g
- tissue uptake dose at 5 min (in vivo; total radioactivity): 81.8 ± 2.5 %ID
- tissue uptake dose at 1.5 h (in vivo; total radioactivity): 11.4 ± 1.7 %ID
- tissue uptake at 5 min (in vivo; [6]): 17.6 ± 3.01 %ID/g
- tissue uptake at 20 min (in vivo; [6]): 6.76 ± 1.17 %ID/g
- tissue uptake at 1 h (in vivo; [6]): 1.99 ± 0.22 %ID/g
- tissue uptake at 1.5 h (in vivo; [6]): 0.9 ± 0.1 %ID/g
- tissue uptake at 5 min (in vivo; [7]): 2.77 ± 0.34 %ID/g
- tissue uptake at 20 min (in vivo; [7]): 1.75 ± 0.93 %ID/g
- tissue uptake at 1 h (in vivo; [7]): 0.62 ± 0.09 %ID/g
- tissue uptake at 1.5 h (in vivo; [7]): 0.55 ± 0.09 %ID/g
- tissue uptake at 5 min (in vivo; [8]): 5.11 ± 0.07 %ID/g
- tissue uptake at 20 min (in vivo; [8]): 2.24 ± 0.57 %ID/g
- tissue uptake at 1 h (in vivo; [8]): 0.7 ± 0.16 %ID/g
- tissue uptake at 1.5 h (in vivo; [8]): 0.35 ± 0.02 %ID/g
- tissue uptake at 5 min (in vivo; [9]): 2.42 ± 0.21 %ID/g
- tissue uptake at 20 min (in vivo; [9]): 1.22 ± 0.25 %ID/g
- tissue uptake at 1 h (in vivo; [9]): 0.75 ± 0.17 %ID/g
- tissue uptake at 1.5 h (in vivo; [9]): 0.62 ± 0.08 %ID/g
- tissue uptake at 5 min (in vivo; [10]): 17.6 ± 2.79 %ID/g
- tissue uptake at 20 min (in vivo; [10]): 8.41 ± 1.33 %ID/g
- tissue uptake at 1 h (in vivo; [10]): 5.11 ± 0.33 %ID/g
- tissue uptake at 1.5 h (in vivo; [10]): 4.6 ± 0.32 %ID/g
- tissue uptake at 5 min (in vivo; [11]): 5.02 ± 0.06 %ID/g
- tissue uptake at 20 min (in vivo; [11]): 2.28 ± 0.31 %ID/g
- tissue uptake at 1 h (in vivo; [11]): 1.21 ± 0.12 %ID/g
- tissue uptake at 1.5 h (in vivo; [11]): 1 ± 0.06 %ID/g
- tissue uptake at 5 min (in vivo; [12]): 8.51 ± 2.33 %ID/g
- tissue uptake at 20 min (in vivo; [12]): 3.78 ± 0.53 %ID/g
- tissue uptake at 1 h (in vivo; [12]): 1.1 ± 0.11 %ID/g
- tissue uptake at 1.5 h (in vivo; [12]): 0.59 ± 0.1 %ID/g
- tissue uptake at 5 min (in vivo; [13]): 2.89 ± 0.18 %ID/g
- tissue uptake at 20 min (in vivo; [13]): 1.03 ± 0.21 %ID/g
- tissue uptake at 1 h (in vivo; [13]): 0.49 ± 0.19 %ID/g
- tissue uptake at 1.5 h (in vivo; [13]): 0.18 ± 0.04 %ID/g
- tissue uptake at 5 min (in vivo; [14]): 4.03 ± 0.19 %ID/g
- tissue uptake at 20 min (in vivo; [14]): 2.17 ± 0.16 %ID/g
- tissue uptake at 1 h (in vivo; [14]): 1.5 ± 0.38 %ID/g
- tissue uptake at 1.5 h (in vivo; [14]): 1.42 ± 0.3 %ID/g
- tissue uptake at 5 min (in vivo; [15]): 3.53 ± 0.43 %ID/g
- tissue uptake at 20 min (in vivo; [15]): 1.7 ± 0.38 %ID/g
- tissue uptake at 1 h (in vivo; [15]): 0.71 ± 0.05 %ID/g
- tissue uptake at 1.5 h (in vivo; [15]): 0.69 ± 0.09 %ID/g
- tissue uptake at 5 min (in vivo; [16]): 6.63 ± 0.23 %ID/g
- tissue uptake at 20 min (in vivo; [16]): 4.09 ± 0.98 %ID/g
- tissue uptake at 1 h (in vivo; [16]): 4.63 ± 0.65 %ID/g
- tissue uptake at 1.5 h (in vivo; [16]): 4.12 ± 0.3 %ID/g
- maximum dose established as clinical dose ([2]; rat, in vivo): 50 µg

Molecule: O=C([O-])CN(CCN(CC(=O)[O-])Cc1cc(CCC(=O)NCCCCCC(=O)NCCCC[C@H](NC(=O)N[C@@H](CCC(=O)O)C(=O)O)C(=O)O)ccc1[O-])Cc1cc(CCC(=O)O)ccc1[O-].[68Ga+3].[OH3+] [^68Ga-PSMA-11]
- effective radiation dose [3]: 2.4 mSv

Molecule: DOTA-(DGlu)6-Ala-Tyr-Gly-Trp-Met-Asp-Phe-NH2 [^111In-CP04, minigastrin analog radiolabeled with indium-111, in clinical studies]
- cell uptake [4]: 14.4 ± 0.8%

Molecule: DOTA-(DGlu)6-Ala-Tyr-Gly-Trp-Nle-Asp-Phe-NH2 [^177Lu-DOTA-PP-F11N, minigastrin analog radiolabeled with lutetium-177, in clinical studies]
- cell internalization [5]: ~ 20%

Molecule: Ga-DOTA-MGS5: DOTA-MGS5 labeled with the stable isotope of gallium, reference standard
- IC50 [1]: 0.5 ± 0.1 nM
